# System: Plutella xylostella
# Test: whole plant or invertebrate
# Format: in vivo
# Conditions: foliar, cabbage leaf dip, second instar larvae, dead and moribund combined, 72 h after release
# Procedure: Test Solutions were Prepared According to the Procedure Described Herein Below (500 PPM):
# • 1. Eppendorf Vortex mixer (ThermoMixer C) and 1.5 mL Eppendorf tubes • 2. Zirconia (Zirconium-Yttrium) beads having diameter of 0.8 to 1.0 mm • 3. Microscope • 4. Beaker 100 mL • 5. Micro-pipette Reagents: • 1. Surfactant Solution • 2. De-mineralized (DM) Water • 1. Weigh 10 mg of the compound of the present invention to be tested in an Eppendorf Tube. • 2. Add 200 mg of the Surfactant Solution into the tube. • 3. Add 600 mg of Zirconia beads into the above mixture. • 4. Fix the tube in Eppendorf Vortex mixer and start vortexing at 2000 rpm. • 5. Mix on Vortex mixer for 30 minutes. After 30 minutes, observe the sample over a microscope at 400× resolution. • 6. If the Maximum particle size is more than 5 μm or average particle size is more than 2 μm or the particle size distribution is uneven, continue vortexing for another 30 minutes and again check the particle size using the microscope. Continue till the average particle size is below 2 microns. • 7. When the required particle size is achieved, add 1.0 mL DM water into the tube, close the cap, shake the tube thoroughly and transfer the contents, along with the beads, into a beaker. • 8. To rinse the tube, add another 1.0 mL of DM water into the tube, close the cap, shake well and transfer this into the same beaker. • 9. Repeat Step no. 8 one more time so that the tube is rinsed well and the compound of the present invention to be tested is transferred to the beaker. • 10. Add 16.8 mL of DM water into the beaker and stir well. • 11. The homogeneous dispersion can then be decanted into a glass vial, immediately, to separate the Zirconia beads. • 12. Immediately use this sample for biological testing. • 13. Further dilutions can be prepared by taking appropriate quantity of the aliquot of Step 10, immediately after stirring, and diluting as per requirement. The sample solution must be well mixed just before biological testing.
# Leaf dip method was used for screening, wherein the required quantity of the compounds were weighed and dissolved in the test solution into the tube and vortex at 2000 rpm with Zirconia beads for 90 min for proper mixing, then mixed with 0.01% Triton-X solution to get the desired test concentration. Cabbage leaves were dipped in the solution for 10 seconds, shade dried for 20 min and then transferred to bioassay trays. Single second instar larva was released into each cell and the tray was covered with lid. The bio-assay trays were kept under laboratory conditions at a temperature of 25° C. and relative humidity of 70%. Observations on dead, moribund and live larvae were recorded at 72 h after the release. Percent mortality was calculated by combining dead and moribund larvae. The following compound num.
row,SMILES,mortality at 300 ppm
1,"CNC(=O)c1c(NC(=O)c2cc(C(F)(F)F)nn2-c2ncccc2Cl)c(Br)cc2ccnn12 [Compound 104, 5-bromo-6-(1-(3-chloropyridin-2-yl)-3-(trifluoromethyl)-1H-pyrazole-5-carboxamido)-N-methylpyrazolo[1,5-a]pyridine-7-carboxamide]",> 70%
2,"Cc1cc2ccnn2c(C(=O)N2CC(F)(F)C2)c1NC(=O)c1cc(Br)nn1-c1ncccc1Cl [Compound 23, 3-bromo-1-(3-chloropyridin-2-yl)-N-(7-(3,3-difluoroazetidine-1-carbonyl)-5-methylpyrazolo[1,5-a]pyridin-6-yl)-1H-pyrazole-5-carboxamide]",> 70%
3,"CCNC(=O)c1c(NC(=O)c2cc(Oc3cc(C(F)(F)F)nn3C)nn2-c2ncccc2Cl)c(C)cc2ccnn12 [Compound 70, 6-(1-(3-chloropyridin-2-yl)-3-((1-methyl-3-(trifluoromethyl)-1H-pyrazol-5-yl)oxy)-1H-pyrazole-5-carboxamido)-N-ethyl-5-methylpyrazolo[1,5-a]pyridine-7-carboxamide]",> 70%
4,"COc1cc(C(=O)Nc2c(C)cc3ccnn3c2C(N)=O)n(-c2ncccc2Cl)n1 [Compound 111, 6-(1-(3-chloropyridin-2-yl)-3-methoxy-1H-pyrazole-5-carboxamido)-5-methylpyrazolo[1,5-a]pyridine-7-carboxamide]",> 70%
5,"CONC(=O)c1c(NC(=O)c2cc(Br)nn2-c2ncccc2Cl)ccc2ccnn12 [Compound 163, 6-(3-bromo-1-(3-chloropyridin-2-yl)-1H-pyrazole-5-carboxamido)-N-methoxypyrazolo[1,5-a]pyridine-7-carboxamide]",> 70%
6,"Cc1cc2ccnn2c(C(=O)NC2CS(=O)(=O)C2)c1NC(=O)c1cc(Br)nn1-c1ncccc1Cl [Compound 208, 6-(3-bromo-1-(3-chloropyridin-2-yl)-1H-pyrazole-5-carboxamido)-N-(1,1-dioxidothietan-3-yl)-5-methylpyrazolo[1,5-a]pyridine-7-carboxamide]",> 70%
7,"CCONC(=O)c1c(NC(=O)c2cc(OC)nn2-c2ncccc2Cl)c(C)cc2ccnn12 [Compound 112, 6-(1-(3-chloropyridin-2-yl)-3-methoxy-1H-pyrazole-5-carboxamido)-N-ethoxy-5-methylpyrazolo[1,5-a]pyridine-7-carboxamide]",> 70%
8,"O=C(Nc1c(Br)cc2ccnn2c1C(=O)NC1CONC1=O)c1cc(C(F)(F)F)nn1-c1ncccc1Cl (stereo not drawn) [Compound 129, 5-bromo-6-(1-(3-chloropyridin-2-yl)-3-(trifluoromethyl)-1H-pyrazole-5-carboxamido)-N-(3-oxoisoxazolidin-4-yl)pyrazolo[1,5-a]pyridine-7-carboxamide]",> 70%
9,"CCCNC(=O)c1c(NC(=O)c2cc(OCC(F)(F)F)nn2-c2ncccc2Cl)c(C)cc2ccnn12 [Compound 11, 6-(1-(3-chloropyridin-2-yl)-3-(2,2,2-trifluoroethoxy)-1H-pyrazole-5-carboxamido)-5-methyl-N-propylpyrazolo[1,5-a]pyridine-7-carboxamide]",> 70%
10,"CCC(CC)NC(=O)c1c(NC(=O)c2cc(Br)nn2-c2ncccc2Cl)c(C)cc2ccnn12 [Compound 185, 6-(3-bromo-1-(3-chloropyridin-2-yl)-1H-pyrazole-5-carboxamido)-5-methyl-N-(pentan-3-yl)pyrazolo[1,5-a]pyridine-7-carboxamide]",> 70%
11,"COc1cc(C(=O)Nc2c(Cl)cc3ccnn3c2C(=O)NCC#N)n(-c2ncccc2Cl)n1 [Compound 149, 5-chloro-6-(1-(3-chloropyridin-2-yl)-3-methoxy-1H-pyrazole-5-carboxamido)-N-(cyanomethyl)pyrazolo[1,5-a]pyridine-7-carboxamide]",> 70%
12,"COc1cc(C(=O)Nc2c(C)cc3ccnn3c2C(=O)NC(C)CCC(C)C)n(-c2ncccc2Cl)n1 (stereo not drawn) [Compound 210, 6-(1-(3-chloropyridin-2-yl)-3-methoxy-1H-pyrazole-5-carboxamido)-5-methyl-N-(5-methylhexan-2-yl)pyrazolo[1,5-a]pyridine-7-carboxamide]",> 70%

# Reference: patent US12024510B2, “Pyrazolopyridine-diamides, their use as insecticide and processes for preparing the same” (PI INDUSTRIES LTD., priority 2017, dated 2024)
